One series concerns anesthetised pigs. Kind of series: Pharmacological investigation of 1,2-PDNO—R, 1,2-PDNO—S and 1,3-PDNO in anesthetised pigs. The format is in vivo, pig. As to conditions: pH approximately 8. The source says:
Prior to experimentation, ethical approval was received from Linköping's regional animal ethics committee (Linköping, Sweden; approval number 953). In brief, 2 male and female pigs (a crossbreed between Swedish country breed, Hampshire and Yorkshire; 3-4 months old; 24-26 kg) were premedicated with azaperone at the farm and transported to the laboratory. At the laboratory, anaesthesia was induced with a mixture of tiletamine, zolazepam and azaperone (intramuscular injection). Propofol was given in a peripheral venous catheter in an ear vein, if needed. Bolus doses of atropine and cefuroxime were administered intravenously. The animals were endotracheally intubated and mechanically ventilated (5 cm H2O in positive end-expiratory pressure, minute ventilation was adjusted to normoventilation). General anaesthesia was maintained with propofol and fentanyl via continuous intravenous infusions, and additional bolus doses were given if needed. Ringer's acetate and glucose solutions were continuously administered intravenously to substitute for fluid loss. Heparin was given as an intravenous bolus dose after the surgical instrumentation. After the experiments the animals were killed in general anaesthesia with a propofol injection followed by a rapid intravenous injection of potassium chloride (40 mmol), and asystolia was confirmed.
The animals were instrumented with an arterial catheter in the right carotid artery for measurement of systemic arterial blood pressure and heart rate. A sheath was placed in the right external jugular vein for introduction of a pulmonary-arterial catheter. This catheter was used for continuous measurement of pulmonary arterial blood pressure, semi-continuous cardiac output and intermittent pulmonary wedge pressure. […] Respiratory gases, pressures and volumes were measured at the endotracheal tube. Respiratory and hemodynamic variables were measured by a Datex AS/3 (Helsinki, Finland) and data were collected by a computerised system (MP100 or MP150/Acknowledge 3.9.1, BIOPAC systems, Goleta, CA, USA). […]

The test system of series [1] is anesthetised and mechanically ventilated pigs with U46619-induced pulmonary hypertension. Nature of the series: In vivo study in pigs with U46619-induced pulmonary hypertension, PDNO infusion vs inhaled NO. The following applies: for mean pulmonary arterial pressure / pulmonary vascular resistance: median (interquartile range).
A short description of series [2]: Stability of non-aqueous mixtures of the nitrites in 1,2-propanediol (GC). Format: physicochemical. As for the experimental part:
Three different concentrations of 1-(nitrosooxy)-propan-2-ol and 2-(nitrosooxy)-propan-1-ol in 1,2-propanediol were prepared and stored in both a refrigerator (5° C.) and freezer (−20° C.). Aliquots of each solution were taken periodically and analysed by GC to determine the concentration of 1-(nitrosooxy)-propan-2-ol and 2-(nitrosooxy)-propan-1-ol.
The results of the GC analysis are shown in the table below (column: Rxi-5Sil MS, 20 m×0.18 mm, […]; carrier: He; Inlet: 250° C., split ratio 100:1; constant flow: 1.0 mL/min; oven temperature profile: 40° C. (3 min), 10° C./min, 80° C. (0 min), 30° C./min, 250° C. (3 min); FID: 300° C., H2 flow 30 mL/min, air flow 400 mL/min, make-up flow (N2) 25 mL/min; internal standard: 1,1,1,3,5,5,5-heptamethyl trisiloxane): […]

Where [3] appears, read: 10-15 min iv infusion (1,2-PDNO—R and —S 43, 1,3-PDNO 30 nmol kg^−1 min^−1) into sodium bicarbonate carrier.
The mark [4] stands for this setting: U46619 infusion alone, data not shown.
Setting [5] is: Freezer (−20° C.), 10 days, Low conc.
The mark [6] stands for this setting: Freezer (−20° C.), 10 days, Medium conc.
Where [7] appears, read: Freezer (−20° C.), 14 days, High conc.
The mark [8] stands for this setting: Freezer (−20° C.), 27 days, Low conc.
[9] abbreviates: Freezer (−20° C.), 27 days, Medium conc.
Setting [10] is: Freezer (−20° C.), 28 days, High conc.
[11] abbreviates: Freezer (−20° C.), 56 days, High conc.
[12] abbreviates: Freezer (−20° C.), 64 days, Low conc.
Where [13] appears, read: Freezer (−20° C.), 64 days, Medium conc.
The mark [14] stands for this setting: Freezer (−20° C.), 84 days, High conc.
Setting [15] is: Freezer (−20° C.), 84 days, Low conc.
[16] abbreviates: Freezer (−20° C.), 84 days, Medium conc.
[17] abbreviates: Freezer (−20° C.), Start, High conc.
[18] abbreviates: Freezer (−20° C.), Start, Low conc.
The mark [19] stands for this setting: Freezer (−20° C.), Start, Medium conc.
Setting [20] is: Refrigerator (5° C.), 10 days, Low conc.
[21] abbreviates: Refrigerator (5° C.), 10 days, Medium conc.
The mark [22] stands for this setting: Refrigerator (5° C.), 14 days, High conc.
Setting [23] is: Refrigerator (5° C.), 27 days, Low conc.
The mark [24] stands for this setting: Refrigerator (5° C.), 27 days, Medium conc.
The mark [25] stands for this setting: Refrigerator (5° C.), 28 days, High conc.
[26] abbreviates: Refrigerator (5° C.), 56 days, High conc.
Where [27] appears, read: Refrigerator (5° C.), 64 days, Low conc.
[28] abbreviates: Refrigerator (5° C.), 64 days, Medium conc.
[29] abbreviates: Refrigerator (5° C.), 84 days, High conc.
[30] abbreviates: Refrigerator (5° C.), 84 days, Low conc.
Where [31] appears, read: Refrigerator (5° C.), 84 days, Medium conc.
Setting [32] is: Refrigerator (5° C.), Start, High conc.
Setting [33] is: Refrigerator (5° C.), Start, Low conc.
The mark [34] stands for this setting: Refrigerator (5° C.), Start, Medium conc.
The mark [35] stands for this setting: PDNO iv 15-60 nmol kg^−1 min^−1 or inhaled NO 5-40 ppm, during U46619.
The mark [36] stands for this setting: PDNO or inhaled NO during U46619, data not shown.

With `O=NOCCCO` [1,3-PDNO, 1-(nitrosooxy)propan-3-ol], in the series with anesthetised pigs (setting [3]), the “Effect on mean pulmonary arterial pressure” value is “decreased” and the “Effect on mean systemic arterial pressure” value is on record as “decreased”. The Vasodilation result with anesthetised pigs (10-15 min iv infusion into sodium bicarbonate carrier) was “caused systemic and pulmonary vasodilation”.

Turning to `CCCCCC(O)C=CC1C2CC(CO2)C1CC=CCCCC(=O)O` (stereo not drawn) [U46619, 9,11-dideoxy-9α, 11α-methanoepoxy PGF2α], the “Effect on arterial partial pressure of oxygen” value in series [1] (setting [4]) was “slightly decreased”. Also, in series [1] (setting [4]), the “Effect on cardiac output” value is listed as “slightly decreased”. In addition, the “mean pulmonary arterial pressure” value in series [1] (during iv U46619 60-150 ng kg^−1 min^−1, before NO inhalation) is reported as 43 (37-48) mmHg; in series [1] (during iv U46619 60-150 ng kg^−1 min^−1, before PDNO infusion) it was 43 (41-46) mmHg. Further, the pulmonary vascular resistance was 8.3 (6.7-11.7) mmHg min l^−1 in series [1] (during iv U46619, before NO inhalation) and 9.8 (7.7-12.5) mmHg min l^−1 in series [1] (during iv U46619, before PDNO infusion).

`CC(CO)ON=O` (stereo not shown) [2-Nitrite, 2-(nitrosooxy)-propan-1-ol]: the Concentration in series [2] (setting [5]) came to 0.06 % w/w; in series [2] (setting [6]), 0.63 % w/w; in series [2] (setting [7]), 2.89 % w/w; in series [2] (setting [8]) it was 0.06 % w/w; in series [2] (setting [9]), 0.57 % w/w; in series [2] (setting [10]) it was 2.93 % w/w. Besides, the Concentration in series [2] (setting [11]) stood at 2.74 % w/w; in series [2] (setting [12]) it was 0.06 % w/w; in series [2] (setting [13]), 0.58 % w/w; in series [2] (setting [14]), 2.71 % w/w; in series [2] (setting [15]) it was 0.06 % w/w; in series [2] (setting [16]), 0.62 % w/w. The Concentration worked out at 2.94 % w/w in series [2] (setting [17]); 0.06 % w/w in series [2] (setting [18]); 0.61 % w/w in series [2] (setting [19]); 0.06 % w/w in series [2] (setting [20]); 0.67 % w/w in series [2] (setting [21]); 2.91 % w/w in series [2] (setting [22]). Besides, the Concentration was determined as 0.07 % w/w in series [2] (setting [23]); 0.63 % w/w in series [2] (setting [24]); 2.90 % w/w in series [2] (setting [25]); 2.69 % w/w in series [2] (setting [26]); 0.06 % w/w in series [2] (setting [27]); 0.57 % w/w in series [2] (setting [28]). The Concentration in series [2] (setting [29]) was 2.59 % w/w; in series [2] (setting [30]), 0.06 % w/w; in series [2] (setting [31]) it was 0.60 % w/w; in series [2] (setting [32]), 2.94 % w/w; in series [2] (setting [33]) it was 0.06 % w/w; in series [2] (setting [34]) it was 0.61 % w/w.

Consider `CC(O)CON=O` (stereo not shown) [1-Nitrite, 1-(nitrosooxy)-propan-2-ol], for which the Concentration came to 0.08 % w/w in series [2] (setting [5]); 0.81 % w/w in series [2] (setting [6]); 3.76 % w/w in series [2] (setting [7]); 0.07 % w/w in series [2] (setting [8]); 0.74 % w/w in series [2] (setting [9]); 3.72 % w/w in series [2] (setting [10]). The Concentration in series [2] (setting [11]) is listed as 3.55 % w/w; in series [2] (setting [12]), 0.07 % w/w; in series [2] (setting [13]), 0.74 % w/w; in series [2] (setting [14]), 3.50 % w/w; in series [2] (setting [15]), 0.08 % w/w; in series [2] (setting [16]), 0.78 % w/w. The Concentration in series [2] (setting [17]) was 3.75 % w/w; in series [2] (setting [18]) it was 0.08 % w/w; in series [2] (setting [19]), 0.81 % w/w; in series [2] (setting [20]), 0.08 % w/w; in series [2] (setting [21]) it was 0.86 % w/w; in series [2] (setting [22]), 3.72 % w/w. Moreover, the Concentration came to 0.09 % w/w in series [2] (setting [23]); 0.81 % w/w in series [2] (setting [24]); 3.67 % w/w in series [2] (setting [25]); 3.47 % w/w in series [2] (setting [26]); 0.07 % w/w in series [2] (setting [27]); 0.73 % w/w in series [2] (setting [28]). The Concentration in series [2] (setting [29]) is reported as 3.33 % w/w; in series [2] (setting [30]), 0.07 % w/w; in series [2] (setting [31]) it was 0.77 % w/w; in series [2] (setting [32]), 3.75 % w/w; in series [2] (setting [33]) it was 0.08 % w/w; in series [2] (setting [34]), 0.81 % w/w.

Take nitric oxide [inhaled NO]: in series [1] (PDNO iv 15-60 nmol kg^−1 min^−1 in sodium bicarbonate carrier or inhaled NO 5-40 ppm, during U46619), the “Effect on pulmonary arterial pressure” value is “significantly reduced”. The “Effect on methemoglobin concentration” value in series [1] (PDNO iv 15-60 nmol kg^−1 min^−1 or inhaled NO 5-40 ppm, arterial blood) is “No drug significantly affected”. For the same molecule, in series [1] (setting [35]), the “Effect on mean arterial pressure” value is given as “No drug significantly affected”, the “Effect on pulmonary vascular resistance” value was “significantly reduced” and the “Effect on systemic vascular resistance” value was “No drug significantly affected”. Further, in series [1] (setting [36]), the “Effect on arterial partial pressure of oxygen” value was “increased this variable towards normal” and the “Effect on cardiac output” value is on record as “no drug significantly changed”. The “Pulmonary-to-systemic vascular resistances ratio compared to the PDNO group” value in series [1] (at the highest doses, data not shown) was “slightly lower”. For the same molecule, the “Effect on pulmonary-to-systemic vascular resistances ratio” value in series [1] (during U46619, data not shown) is reported as “significantly decreased”. Further, in series [1] (inhaled NO group, associated to dose of delivered NO), the “Trend in methemoglobin concentration” value is on record as “tendency for an increase”.
